Data from patent US10363227B2, “Pharmaceutical formulation for use in the treatment and/or prevention of restenosis” (Centre Hospitalier Universitaire Vaudois (C.H.U.V.), priority 2013, dated 2019).

Key:
hVSMCs = experiment: mRNA levels in hVSMCs (PAI-1, MMP2, Cx43, tPA, HMOX); format: cell-based, human; settings: ATV directly added in the medium, 24 hours incubation
Procedure: FIG. 6: Analysis of transcripts and proteins of hVSMC. Measurements of various mRNAs levels in hVSMCs in presence of ATV directly added in the medium were performed. PAI-1 and MMP2 and Cx43 mRNA levels were decreased whereas tPA and HMOX transcripts were increased after 24 hours incubation.
(§1) To that end, experiments on the influence of the drug on migration and transmigration of the hVSMC and the expression of different mRNAs of proteins involved in the cellular invasivity were performed.

[1] = tested on: human vascular smooth muscle cells (hVSMC); experiment: hVSMC viability, MTT test; format: cell-based
Primary hVSMCs = experiment: hVSMC migration, silicon culture inserts with cell free gap; format: cell-based, human
Procedure: as §1

Q: Which results are given for CC(C)c1c(C(=O)Nc2ccccc2)c(-c2ccccc2)c(-c2ccc(F)cc2)n1CC[C@@H](O)C[C@@H](O)CC(=O)O [ATV, Atorvastatin]?
A: Cx43 mRNA level (hVSMCs): decreased; HMOX transcript level (hVSMCs): increased; MMP2 mRNA level (hVSMCs): decreased; PAI-1 mRNA level (hVSMCs): decreased; tPA transcript level (hVSMCs): increased; time of viability reduction ([1]; 5 μM ATV): 72 h; time of viability reduction ([1]; 10 μM ATV): 24 h; viability of hVSMCs (MTT test) ([1]; 5-10 μM ATV, P<0.05 versus cells without ATV): significantly reduced; proliferation of human SMC ([1]; primary culture at passage 2-5): decreased; time at which inhibition of cell migration was observed (Primary hVSMCs; 5 μM ATV directly added to the culture medium): 36 h; time at which inhibition of cell migration was observed (Primary hVSMCs; 10 μM ATV directly added to the culture medium): 24 h; hVSMC migration into cell free gap (Primary hVSMCs; 5 and 10 μM ATV): decreased
